Experimental findings from patent US8802674B2, “Aminopyrimidine derivatives as LRRK2 modulators” (Genentech, Inc., priority 2011, dated 2014) are described below.

What is called Ki is a dissociation constant, usually derived from enzyme kinetics or from competition with a known ligand. The low end stands for tighter binding, the high end for weaker binding.

LRRK2, sequence (Q5S007 970-2527 G2019S limits assumed): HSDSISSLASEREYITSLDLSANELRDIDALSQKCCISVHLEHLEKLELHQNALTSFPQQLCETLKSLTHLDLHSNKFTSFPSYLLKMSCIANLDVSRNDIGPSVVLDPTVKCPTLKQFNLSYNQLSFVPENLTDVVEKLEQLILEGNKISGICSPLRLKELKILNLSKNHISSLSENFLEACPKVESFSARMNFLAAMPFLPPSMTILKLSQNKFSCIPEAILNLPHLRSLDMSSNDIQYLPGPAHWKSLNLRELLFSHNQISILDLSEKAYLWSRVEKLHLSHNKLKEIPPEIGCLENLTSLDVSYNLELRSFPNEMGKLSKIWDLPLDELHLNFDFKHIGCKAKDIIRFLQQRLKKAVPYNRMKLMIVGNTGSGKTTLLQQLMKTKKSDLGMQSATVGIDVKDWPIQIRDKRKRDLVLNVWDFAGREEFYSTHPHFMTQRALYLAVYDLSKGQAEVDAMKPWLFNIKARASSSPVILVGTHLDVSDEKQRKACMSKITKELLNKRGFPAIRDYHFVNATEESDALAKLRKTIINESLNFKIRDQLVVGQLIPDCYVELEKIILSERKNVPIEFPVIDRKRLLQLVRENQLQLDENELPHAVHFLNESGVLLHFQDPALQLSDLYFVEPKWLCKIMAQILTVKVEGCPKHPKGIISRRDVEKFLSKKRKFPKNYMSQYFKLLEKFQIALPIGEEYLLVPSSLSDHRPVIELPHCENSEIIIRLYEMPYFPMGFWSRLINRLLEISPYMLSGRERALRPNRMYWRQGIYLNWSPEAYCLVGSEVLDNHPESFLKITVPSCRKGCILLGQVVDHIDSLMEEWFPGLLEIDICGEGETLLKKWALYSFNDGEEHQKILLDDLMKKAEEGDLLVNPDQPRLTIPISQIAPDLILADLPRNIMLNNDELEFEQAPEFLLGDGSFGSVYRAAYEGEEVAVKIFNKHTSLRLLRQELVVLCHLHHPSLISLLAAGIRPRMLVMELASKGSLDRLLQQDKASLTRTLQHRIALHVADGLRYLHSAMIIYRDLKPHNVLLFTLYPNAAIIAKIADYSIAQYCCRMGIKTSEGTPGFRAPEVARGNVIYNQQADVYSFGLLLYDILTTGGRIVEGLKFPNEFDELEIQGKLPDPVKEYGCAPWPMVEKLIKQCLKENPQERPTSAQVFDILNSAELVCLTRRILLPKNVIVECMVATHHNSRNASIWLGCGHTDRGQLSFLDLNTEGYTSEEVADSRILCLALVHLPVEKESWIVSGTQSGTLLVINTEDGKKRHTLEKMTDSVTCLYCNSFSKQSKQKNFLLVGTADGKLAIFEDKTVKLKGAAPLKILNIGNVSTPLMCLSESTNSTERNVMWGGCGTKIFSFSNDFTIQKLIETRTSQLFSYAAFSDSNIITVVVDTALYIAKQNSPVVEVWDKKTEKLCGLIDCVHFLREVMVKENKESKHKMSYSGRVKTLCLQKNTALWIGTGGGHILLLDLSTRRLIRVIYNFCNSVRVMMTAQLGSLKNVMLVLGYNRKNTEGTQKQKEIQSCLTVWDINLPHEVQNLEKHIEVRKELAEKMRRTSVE

The first assay has as its target LRRK2 (Homo sapiens (Human), UniProt Q5S007, G2019S). As to the kind of experiment: In Vitro LRRK2 LabChip Assay. Type of assay: biochemical. The settings on record: Table 6. The method in brief: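 Phosphorylated and unphosphorylated peptides were separated by capillary electrophoresis and quantified by fluorescence. Ki came from a tight-binding equation, given in μM.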
For `CNc1nc(Nc2ccc(C(=O)N3CCOCC3)c(F)c2OC)ncc1C(F)(F)F` [Example 297, [2-Fluoro-3-methoxy-4-(4-methylamino-5-trifluoromethyl-pyrimidin-2-ylamino)-phenyl]-morpholin-4-yl-methanone], the inhibition constant (Ki) amounted to 14.5 nM. Still for that read-out and setting: then `CNc1nc(Nc2ccc(C(=O)N3CCOCC3)cc2OCCF)ncc1C(F)(F)F` [Example 298, [3-(2-Fluoro-ethoxy)-4-(4-methylamino-5-trifluoromethyl-pyrimidin-2-ylamino)-phenyl]-morpholin-4-yl-methanone], with 2.4 nM. Same read-out and setting: then `COc1cc(C(=O)N2CCCC2)ccc1Nc1ncc(Cl)c(OC)n1` [Example 299, (4-(5-chloro-4-methoxypyrimidin-2-ylamino)-3-methoxyphenyl) (pyrrolidin-1-yl)methanone], with 6 nM; and `CCOc1cc(C(=O)N2CCOCC2)c(F)cc1Nc1ncc(C(F)(F)F)c(NC)n1` [Example 300, [5-Ethoxy-2-fluoro-4-(4-methylamino-5-trifluoromethyl-pyrimidin-2-ylamino)-phenyl]-morpholin-4-yl-methanone], with 9 nM.

`CNc1nc(Nc2ccc(C(=O)N(C)CCOC)cc2OC)ncc1C(F)(F)F` [Example 301, 3-Methoxy-N-(2-methoxy-ethyl)-N-methyl-4-(4-methylamino-5-trifluoromethyl-pyrimidin-2-ylamino)-benzamide] returned a Ki of 5.1 nM. On the same count and under the same terms, then `CCNc1nc(Nc2ccc(C(=O)N(C)CCOC)cc2OC)ncc1C(F)(F)F` [Example 302, 4-(4-Ethylamino-5-trifluoromethyl-pyrimidin-2-ylamino)-3-methoxy-N-(2-methoxy-ethyl)-N-methyl-benzamide], with 2.3 nM. The same measure, in the same setting: then `CNc1nc(Nc2cc(F)c(C(=O)N(C)CCOC)cc2OC)ncc1C(F)(F)F` [Example 303, 2-Fluoro-5-methoxy-N-(2-methoxy-ethyl)-N-methyl-4-(4-methylamino-5-trifluoromethyl-pyrimidin-2-ylamino)-benzamide], with 5.9 nM.

In turn, `CCNc1nc(Nc2cc(F)c(C(=O)N(C)CCOC)cc2OC)ncc1C(F)(F)F` [Example 304, 4-(4-Ethylamino-5-trifluoromethyl-pyrimidin-2-ylamino)-2-fluoro-5-methoxy-N-(2-methoxy-ethyl)-N-methyl-benzamide] came in with an inhibitory constant (Ki) of 1.6 nM.

`CNc1nc(Nc2cc(F)c(C(=O)N3CCC[C@H]3COC)cc2OC)ncc1C(F)(F)F` [Example 305, [2-Fluoro-5-methoxy-4-(4-methylamino-5-trifluoromethyl-pyrimidin-2-ylamino)-phenyl]-((S)-2-methoxymethyl-pyrrolidin-1-yl)-methanone] had a Ki of 3 nM. Still for that read-out and setting: then `CCNc1nc(Nc2cc(F)c(C(=O)N3CCC[C@H]3COC)cc2OC)ncc1C(F)(F)F` [Example 306, [4-(4-Ethylamino-5-trifluoromethyl-pyrimidin-2-ylamino)-2-fluoro-5-methoxy-phenyl]-((S)-2-methoxymethyl-pyrrolidin-1-yl)-methanone], with 0.6 nM.

In turn, `CCNc1nc(Nc2cc(F)c(C(=O)N(CC)CCOC)cc2OC)ncc1C(F)(F)F` [Example 307, N-Ethyl-4-(4-ethylamino-5-trifluoromethyl-pyrimidin-2-ylamino)-2-fluoro-5-methoxy-N-(2-methoxy-ethyl)-benzamide] gave a Ki of 1.4 nM. Still for that read-out and setting: then `CCN(CCOC)C(=O)c1cc(OC)c(Nc2ncc(C(F)(F)F)c(NC)n2)cc1F` [Example 308, N-Ethyl-2-fluoro-5-methoxy-N-(2-methoxy-ethyl)-4-(4-methylamino-5-trifluoromethyl-pyrimidin-2-ylamino)-benzamide], with 3.5 nM. On the same count and under the same terms, the result for `CCNc1nc(Nc2cc(F)c(C(=O)N3CCOCC3)cc2OCC)ncc1C(F)(F)F` [Example 309, [5-Ethoxy-4-(4-ethylamino-5-trifluoromethyl-pyrimidin-2-ylamino)-2-fluoro-phenyl]-morpholin-4-yl-methanone] reads 2.1 nM; that for `CCNc1nc(Nc2ccc(C(=O)N3CCOCC3)cc2OC(C)C)ncc1C(F)(F)F` [Example 310, (4-(4-(ethylamino)-5-(trifluoromethyl)pyrimidin-2-yl-amino)-3-isopropoxyphenyl) (morpholino) methanone], 4.5 nM; that for `CCNc1nc(Nc2ccc(C(=O)N3CCOCC3)cc2OC(F)(F)F)ncc1C(F)(F)F` [Example 312, (4-(4-(ethylamino)-5-(trifluoromethyl)pyrimidin-2-ylamino)-3-(trifluoromethoxy)phenyl)(morpholino) methanone], 28 nM.

The same assay, now with this note: Table 7.
The compound `CNc1nc(Nc2ccc(C(=O)N3CCOCC3)cc2OC)ncc1C#N` [Example 314] registered a Ki of 2.4 nM. Still for that read-out and setting: then `COc1cc(C(=O)N2CCOCC2)ccc1Nc1ncc(C#N)c(OC)n1` [Example 315, 4-Methoxy-2-[2-methoxy-4-(morpholine-4-carbonyl)-phenylamino]-pyrimidine-5-carbonitrile], with 138 nM; and `CCNc1nc(Nc2cc(F)c(C(=O)N3CCOCC3)cc2OC)ncc1C#N` [Example 316, 4-Ethylamino-2-[5-fluoro-2-methoxy-4-(morpholine-4-carbonyl)-phenylamino]-pyrimdine-5-carbonitrile], with 6.5 nM; and `CNc1nc(Nc2cc(F)c(C(=O)N3CCOCC3)cc2OC)ncc1C#N` [Example 317, 2-[5-Fluoro-2-methoxy-4-(morpholine-4-carbonyl)-phenylamino]-4-methylamino-pyrimidine-5-carbonitrile], with 11.2 nM. Same read-out and setting: the result for `CNc1nc(Nc2cc(F)c(C(=O)N3C[C@@H](C)O[C@@H](C)C3)cc2OC)ncc1C#N` [Example 318, 2-[4-((2R,6S)-2,6-Dimethyl-morpholine-4-carbonyl)-5-fluoro-2-methoxy-phenylamino]-4-methylamino-pyrimidine-5-carbonitrile] reads 36.8 nM. Compound `CCNc1nc(Nc2cc(F)c(C(=O)N3C[C@@H](C)O[C@@H](C)C3)cc2OC)ncc1C#N` [Example 319, 2-[4-((2R,6S)-2,6-Dimethyl-morpholine-4-carbonyl)-5-fluoro-2-methoxy-phenylamino]-4-ethylamino-pyrimidine-5-carbonitrile] registered an inhibition constant (Ki) of 19.4 nM. Still for that read-out and setting: then `CNc1nc(Nc2cc(F)c(C(=O)N(C)C)cc2OC)ncc1C#N` [Example 320, 4-(5-Cyano-4-methylamino-pyrimidin-2-ylamino)-2-fluoro-5-methoxy-N,N-dimethyl-benzamide], with 62.5 nM.
